The record followed here is US20210308102A1 (priority 2018, published 2021).

A value given as a limit tells only on which side of the number the result lay.

Settings in all cases: human, in vivo
The test system of data set [1] is Presbyopic subjects.
Data set [2] deals with Presbyopic subjects. This is another data set of the same source.
The test system of data set [3] is Presbyopic subjects. The source holds these as a separate data set.

Turning to `CNC(=O)Oc1ccc2c(c1)[C@]1(C)CCN(C)[C@@H]1N2C` [compound 2, physostigmine], the “improvement of distance corrected near visual acuity, 0.25% eye drops compared with 1.5% eye drops” value in data set [1] is reported as “more than 1.5% compound 2 eye drops”. In data set [2], the “duration of eye twitching” value is listed as 15 min; the “duration of eyelid and eyeball twitching” value is given as 15 min; the duration of headache is 1 to 2 h; the “duration of slightly inflexible eye mobility” value fell in the range of 3 to 4 h. Further, in data set [2], the “onset of eye twitching” value was 15 min; the “onset of eyelid and eyeball twitching” value came out at 15 min; the “time until eye irritation disappeared” value is reported as 10 min; the “upper eyelid and eyeball adherence and mobility” value was “The upper eyelid and the eyeball were adhered tightly, and the mobility of the upper eyelid and eyeball was slightly weakened”. Further, in data set [3], the “effect on miosis, 0.25% eye drops compared with 1.5% eye drops” value is “more than 1.5% compound 2 eye drops”; the “time at which efficacy reached the highest level” value worked out at 2 h; the “time at which efficacy was still present” value is not below 6 h.
As to `CN(CCCCCCCCCCN(C)C(=O)Oc1cccc([N+](C)(C)C)c1)C(=O)Oc1cccc([N+](C)(C)C)c1` [compound 3, Demecarium bromide], in data set [2], the “duration of eye discomfort and conjunctival congestion” value fell in the range of 2 to 3 days; the ocular tolerance result is “Half of the subjects began to suffer from eye discomfort and conjunctival congestion after several hours”; the “share of the subjects with no eye discomfort” value is recorded as “half”.
Regarding `CN(C)C(=O)Oc1cccc([N+](C)(C)C)c1` [compound 1, neostigmine], in data set [2], the “share of the subjects with no tolerance problems” value is “One third” and the “time until symptoms gradually alleviated” value came to 30 min.
